Patent US20040082551A1, “Novel pyrazoles and their use as p38 kinase inhibitors” (priority 2002, published 2004)
Values joined by “and” are separate entries in the source; they are usually repeats but may differ in a detail not shown here. Equal values may be shown once. Where a name gives a salt, the structure may show the parent alone.

Each compound was assayed against T1, human p38 kinase alpha (Homo sapiens, UniProt Q16539) (assay: In vitro p38 kinase inhibition analysis (PHAS-I 32P-ATP or EGFRP 33P-ATP format)). Conditions: Table 1; compounds of Examples 1-28; one of two in vitro assay methods; Trifluoroacetate; read-out: p38α Kinase Inhibition (IC50 in μM).
T1 construct: The coding region of the human p38α cDNA was obtained by PCR-amplification from RNA isolated from the human monocyte cell line THP.1; made in house; host or cells: E. coli DH10B
Type: biochemical
Experimental: The ability of compounds to inhibit human p38 kinase alpha was evaluated using one of two in vitro assay methods. In the first method, activated human p38 kinase alpha phosphorylates a biotinylated substrate, PHAS-I (phosphorylated heat and acid stable protein-insulin inducible), in the presence of gamma ^32P-ATP (^32P-ATP). PHAS-I was biotinylated before the assay, and provided a means of capturing the substrate which was phosphorylated during the assay. p38 Kinase was activated by MKK6. Compounds were tested in 10 fold serial dilutions over the range of 100 μM to 0.001 μM using 1% DMSO. Each concentration of inhibitor was tested in triplicate.
All reactions were carried out in 96 well polypropylene plates. Each reaction well contained 25 mM HEPES pH 7.5, 10 mM magnesium acetate, and 50 μM unlabeled ATP. […] Activated human p38 kinase alpha was used at 1 μg per 50 μl reaction volume, representing a final concentration of 0.3 μM. Gamma ^32P-ATP was used to follow the phosphorylation of PHAS-I. ^32P-ATP has a specific activity of 3000 Ci/mmol, and was used at 1.2 μCi per 50 μl reaction volume. The reaction proceeded either for one hr or overnight at 30° C.
Following incubation, 20 μl of reaction mixture was transferred to a high capacity streptavidin coated filter plate (SAM-streptavidin-matrix, Promega) prewetted with phosphate buffered saline. The transferred reaction mix was allowed to contact the streptavidin membrane of the Promega plate for 1-2 min. […] Filter plates were air dried and 20 μl of scintillant was added. The plates were sealed and counted.
A second assay format was alternatively employed. This assay is based on p38 kinase alpha being induced phosphorylation of EGFRP (epidermal growth factor receptor peptide, a 21 mer) in the presence of ^33P-ATP. Compounds were tested in 10 fold serial dilutions over the range of 100 μM to 0.001 μM in 10% DMSO. Each concentration of inhibitor was tested in triplicate. Compounds were evaluated in 50 μl reaction volumes in the presence of 25 mM HEPES pH 7.5, 10 mM magnesium acetate, 4% glycerol, 0.4% bovine serum albumin, 0.4 mM DTT, 50 μM unlabeled ATP, 25 μg EGFRP (200 μM), and 0.05 uCi gamma ^33P-ATP. Reactions were initiated by addition of 0.09 μg of activated, purified human GST-p38 kinase alpha. Activation was carried out using GST-MKK6 (5:1,p38:MKK6) for one hr at 30° C. in the presence of 50 μM ATP. Following incubation for 60 min at room temperature, the reaction was stopped by addition of 150 μl of AG 1×8 resin in 900 mM sodium formate buffer, pH 3.0 (1 volume resin to 2 volumes buffer). The mixture was mixed three times with pipetting. Afterward, the resin was allowed to settle. A total of 50 μl of clarified solution head volume was transferred from the reaction wells to Microlite-2 plates. 150 μl of Microscint 40 was then added to each well of the Microlite plate, and the plate was sealed, mixed, and counted.

T1 sequence (Q16539 whole entry): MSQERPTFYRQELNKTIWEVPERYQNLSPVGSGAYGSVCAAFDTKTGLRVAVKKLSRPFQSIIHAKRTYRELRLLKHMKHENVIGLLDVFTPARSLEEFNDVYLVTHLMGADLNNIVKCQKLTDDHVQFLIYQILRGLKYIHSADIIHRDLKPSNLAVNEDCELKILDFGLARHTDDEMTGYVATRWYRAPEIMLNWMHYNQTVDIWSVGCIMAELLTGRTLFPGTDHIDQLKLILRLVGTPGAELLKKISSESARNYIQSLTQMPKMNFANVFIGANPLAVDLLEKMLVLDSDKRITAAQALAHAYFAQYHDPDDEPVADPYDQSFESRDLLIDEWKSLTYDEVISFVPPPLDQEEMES

| IC50 [µM] | SMILES |
| --- | --- |
| 0.0285 | OC[C@H]1CCCN1[C@H]1CC[C@H](c2[nH]nc(-c3ccc(Cl)cc3)c2-c2ccncn2)CC1 [Example 9, ((2R)-1-{4-[3-(4-chlorophenyl)-4-pyrimidin-4-yl-1H-pyrazol-5-yl]cyclohexyl)pyrrolidin-2-yl)methanol Trifluoroacetate] |
| 0.0238 | Clc1ccc(-c2n[nH]c([C@H]3CC[C@H](N4CCCCC4)CC3)c2-c2ccncn2)cc1 [Example 7, 4-[3-(4-chlorophenyl)-5-(4-piperidin-1-yl-cyclohexyl)-1H-pyrazol-4-yl]pyrimidine Trifluoroacetate] |

Same assay, conditions: Table 1; compounds of Examples 1-28; one of two in vitro assay methods; read-out: p38α Kinase Inhibition (IC50 in μM)

| IC50 [µM] | SMILES |
| --- | --- |
| 0.0118 | CN(C)CC(=O)OCC(=O)N1CCC(c2[nH]nc(-c3ccc(Cl)cc3)c2-c2ccncn2)CC1 [Example 25, 2-{4-[3-(4-chlorophenyl)-4-pyrimidin-4-yl-1H-pyrazol-5-yl]piperidin-1-yl}-2-oxoethyl N,N-dimethylglycinate Hydrochloride] |
| 0.0106 | CC(c1ccc(C(C)(C)O)cc1)N1CCC(c2[nH]nc(-c3ccc(Cl)cc3)c2-c2ccncn2)CC1 (centres unmarked) [Example 18, 2-[4-(1-{4-[3-(4-chlorophenyl)-4-pyrimidin-4-yl-1H-pyrazol-5-yl]piperidin-1-yl}ethyl)phenyl]propan-2-ol] |
| 0.115 | CC(C)N[C@H]1CC[C@H](c2[nH]nc(-c3ccc(F)c(F)c3)c2-c2ccncn2)CC1 [Example 13, 4-[3-(3,4-difluorophenyl)-4-pyrimidin-4-yl-1H-pyrazol-5-yl]-N-isopropylcyclohexanamine] |

| SMILES | IC50 [µM] |
| --- | --- |
| Clc1ccc(-c2n[nH]c([C@H]3CC[C@H](NC4CCCCC4)CC3)c2-c2ccncn2)cc1 [Example 3, 4-[3-(4-chlorophenyl)-4-pyrimidin-4-yl-1H-pyrazol-5-yl]-N-cyclohexyltrans-cyclohexanamine] | 0.0452 |

Same assay, conditions: Table 2; additional pyrazole compounds, Examples 56-169; read-out: p38α Kinase Inhibition (IC50 in μM)

| SMILES | IC50 |
| --- | --- |
| COc1cccc(-c2n[nH]c(C3CCN(C(=O)CO)CC3)c2-c2ccncn2)c1 [Example 85] | 2.1 µM |
| O=C(CO)N1CCC(c2[nH]nc(-c3ccc(Cl)cc3)c2-c2ccnc(O[C@@H]3CCOC3)n2)CC1 [Example 90] | 0.34 µM |
| CN(C)CCNc1nccc(-c2c(-c3ccc(Cl)cc3F)n[nH]c2C2CCN(C(=O)CO)CC2)n1 [Example 162] | 0.474 µM |
| CN(C)CCOc1nccc(-c2c(-c3ccc(F)c(C(F)(F)F)c3)n[nH]c2C2CCN(C(=O)CO)CC2)n1 [Example 139] | 0.854 µM |
| FC(F)(F)c1cc(-c2n[nH]c(C3CCNCC3)c2-c2ccnc(NC3CCCC3)n2)ccc1NC1CCCC1 [Example 165] | 0.424 µM |
| O=C(CO)N1CCC(c2[nH]nc(-c3cc(F)cc(Cl)c3)c2-c2ccncn2)CC1 [Example 104] | 1.1 µM |
| CC(C)(C)OC(=O)N1CCC(c2[nH]nc(-c3ccc(Cl)cc3)c2-c2ccnc(Oc3ccc(C#N)cc3)n2)CC1 [Example 135] | 1.5 µM |
| N#Cc1ccc(-c2n[nH]c(C3CCN(C(=O)CO)CC3)c2-c2ccncn2)cc1 [Example 74] | 7.06 µM |
| COc1cc(Cl)ccc1-c1n[nH]c(C2CCN(C(=O)COC(C)=O)CC2)c1-c1ccncn1 [Example 77] | 22.8 µM |
| CN(C)CCNc1nccc(-c2c(-c3cccc(Cl)c3)n[nH]c2C2CCN(C(=O)OC(C)(C)C)CC2)n1 [Example 145] | 4.1 µM |
| C[C@@H](N[C@H]1CC[C@H](c2[nH]nc(-c3ccc(Cl)cc3)c2-c2ccncn2)CC1)c1ccccc1 [Example 124] | 0.0452 µM |
| C[C@H](O)C(=O)N1CCC(c2[nH]nc(-c3cccc(Cl)c3F)c2-c2ccncn2)CC1 [Example 109] | 0.379 µM |
| CN(C)CCNc1nccc(-c2c(-c3cccc(Cl)c3)n[nH]c2C2CCN(C(=O)CO)CC2)n1 [Example 117] | 0.699 µM |
| CN(C)CCOc1nccc(-c2c(-c3ccc(Cl)cc3F)n[nH]c2C2CCN(C(=O)CO)CC2)n1 [Example 158] | 1.3 µM and 0.647 µM |
| O=C(CO)N1CCC(c2[nH]nc(-c3cc(C(F)(F)F)ccc3F)c2-c2ccncn2)CC1 [Example 102] | 0.454 µM |

Further lines, results first:

| IC50 | SMILES |
| --- | --- |
| 0.207 µM | C[C@@H](O)C(=O)N1CCC(c2[nH]nc(-c3ccc(Cl)cc3F)c2-c2ccncn2)CC1 [Example 113] |
| 0.147 µM | O=C(CO)N1CCC(c2[nH]nc(-c3ccc(F)c(Cl)c3)c2-c2ccncn2)CC1 [Example 70] |
| 0.00576 µM | C[C@H](N[C@H]1CC[C@H](c2[nH]nc(-c3ccc(Cl)cc3)c2-c2ccncn2)CC1)c1ccc(F)cc1 [Example 128] |
| 0.01 µM | CC(C)(C)OC(=O)N1CCC(c2[nH]nc(-c3ccc(Cl)cc3)c2-c2ccnc(NC3CCCC3)n2)CC1 [Example 140] |
| 0.202 µM | CN(C)CCNc1nccc(-c2c(-c3ccc(Cl)cc3F)n[nH]c2C2CCNCC2)n1 [Example 161] |
| 0.247 µM | O=C(CO)N1CCC(c2[nH]nc(-c3cc(Cl)ccc3F)c2-c2ccncn2)CC1 [Example 105] |
| 0.00856 µM | C[C@H](N[C@H]1CC[C@H](c2[nH]nc(-c3ccc(Cl)cc3)c2-c2ccncn2)CC1)c1ccccc1 [Example 121] |
| 0.248 µM | O=C(CO)N1CCC(c2[nH]nc(-c3ccc(F)cc3F)c2-c2ccncn2)CC1 [Example 67] |
| 0.0402 µM | CC(C)C(N)C(=O)OCC(=O)N1CCC(c2[nH]nc(-c3ccc(Cl)cc3)c2-c2ccncn2)CC1 (centres unmarked) [Example 56] |
| 0.14 µM | O=C(CO)N1CCC(c2[nH]nc(-c3ccc(Cl)cc3)c2-c2ccnc(O[C@H]3CCOC3)n2)CC1 [Example 92] |
| 0.0649 µM | CCN1CCN([C@H]2CC[C@H](c3[nH]nc(-c4ccc(Cl)cc4)c3-c3ccncn3)CC2)CC1 [Example 58] |
